Results reported in patent US9616140B2, “Fluorescent phospholipid ether compounds, compositions, and methods of use” (Cellectar, Inc., priority 2009, dated 2017).
One block for each compound: values may come before it.

Columns and labels:
[1] = test system: xenograft and spontaneous primary and metastatic human and rodent tumor models; conditions: cited from earlier work
NFA cells [2] = assay: Co-culture NFA/Caki-2, co-staining with nucleus stain and lysosome marker; assay type: cell-based; conditions: co-culture with Caki-2, 5 μM, 24 hours
Method: (§1) Briefly, NFA and Caki-2 cell lines were co-cultured overnight on micro slide VI (Ibidi, Verona, Wis.). The next day, the cells were incubated with 5 μM of CLR1501 for 24 hours at 37° C. in complete media. The next day after washing with PBS, the cells were co-stained with nucleus stain (Hoechst 33342) and lysosome marker (Lyso-tracker), (Invitrogen, Carlsbad, Calif.). The cells were observed using Nikon A1R confocal microscope. CLR1501 was excited and detected using Alexa-Fluor 488 filter while nucleus stain and lysosome stain were excited and detected using DAPI and Texas-Red filter, respectively.

Caki-2 cells = assay: as above; assay type: cell-based; conditions: 5 μM, 24 hours
Method: as §1

[3] = test system: Ovcar-3 (ovarian adenocarcinoma) cells; assay: Intensity of signal emitted by CLR1501, confocal microscopy; assay type: cell-based; conditions: 5 μM CLR1501, 24 hours
Method: (§2) Similar experiments were performed on several other cancerous cell lines: colorectal adenocarcinoma, uterine carcinoma, pancreatic carcinoma, ovarian adenocarcinoma, glioblastoma, clear cell carcinoma, and prostate adenocarcinoma. For comparison reasons, normal fibroblast cells were incubated with CLR1501.
(§3) Briefly, cells were plated overnight in micro slides VI (Ibidi, Verona, Wis.). The next day the cells were incubated with 5 μM of CLR1501 for 24 hours at 37° C. The cells were washed with PBS before the images were taken. The images were obtained using Nikon A1R confocal microscope. The length of exposure and intensity of the laser were similar among samples. CLR1501 was obtained using Alexa Fluor 488 filters (488 nm excitation-520 nm emission wavelength).
(§4) Table 1 illustrates intensity of signal emitted by CLR1501 in cancerous cell lines versus normal cells.

[4] = test system: Caki-2 (clear cell carcinoma) cells; assay: as above; assay type: cell-based; conditions: 5 μM CLR1501, 24 hours
Method: as §2, §3, §4

[5] = test system: PC3 (prostate adenocarcinoma) cells; assay: as above; assay type: cell-based; conditions: 5 μM CLR1501, 24 hours
Method: as §2, §3, §4

[6] = test system: NFA (normal fibroblast cells); assay: as above; assay type: cell-based; conditions: 5 μM CLR1501, 24 hours
Method: as §2, §3, §4

[7] = test system: Panc-1 (pancreatic carcinoma) cells; assay: as above; assay type: cell-based; conditions: 5 μM CLR1501, 24 hours
Method: as §2, §3, §4

[8] = test system: Panc-1 (pancreatic carcinoma) tumors; assay: In vivo fluorescence imaging of CLR1501 distribution in Panc-1 tumor-bearing athymic nude mice; design: species or system mouse
Method: Athymic nude mice (Hsd: Athymic Nude-Fox1^nu), inoculated with Panc-1 (Pancreatic carcinoma), were injected with 150 μL of 6 mg/mL CLR1501 formulated in 0.4% Polysorbate 20, 2% ethanol and saline 24 hour and 96 hours prior to imaging. The fluorescence images were obtained using a Kodak In-Vivo Multispectral System FX. The system provides multispectral tuning of excitation light which is able to separate signals from the dye and from the body autofluorescence. Mice were anesthetized by inhalation of isofluorane. The dyes were excited at 570 nm. […] The mouse was inoculated with 1×10^6 Panc-1 cells (human pancreatic carcinoma). […] CLR1501 was excited at 480 and emitted at 520 nm. The intensity was monitored at 24 and 96 hours using Kodak in vivo imaging system (Carestream Health, Woodbridge, Conn.).

[9] = test system: glioblastoma cells (U87MG); assay: Incubation of glioblastoma cells with CLR1501 and co-staining; assay type: cell-based; conditions: 48 hours
Method: The following co-stained dyes were used: Hoechst 33342 (1 μg/mL) (nucleus; blue color), Mitotracker (25 nM) (mitochondria, red color) and Blue-White DPX (100 nM) (Endoplasmic Reticulum (ER), blue color) were diluted in PBS and added to the cells for 15 minutes. The cells were washed with PBS and imaged with Bio-Rad Radiance 2100 MP Rainbow.

PC3 cells = assay: Co-culture NFA/PC3, co-staining with nucleus stain and mitochondria marker; assay type: cell-based; conditions: 5 μM, 24 hours
Method: as §1, with “and PC3” for “and Caki-2”, “and mitochondria” for “and lysosome”, “marker (Mitotracker),” for “marker (Lyso-tracker),”, “488 filter,” for “488 filter”, “DAPI filter” for “DAPI”

NFA cells [10] = assay: as above; assay type: cell-based; conditions: NFA (normal), 5 μM, 24 hours
Method: as §1, with “and PC3” for “and Caki-2”, “and mitochondria” for “and lysosome”, “marker (Mitotracker),” for “marker (Lyso-tracker),”, “488 filter,” for “488 filter”, “DAPI filter” for “DAPI”

[11] = test system: tumor cell lines (HCT-116, MES SA/DX-5, Mia Paca-2, Panc-1, Ovcar-3, U-87MG, Caki-2, PC3); assay: Uptake of CLR1501 in cancerous cell lines versus normal cells; assay type: cell-based
Method: as §2, §3

[12] = test system: Panc-1 cells (human pancreatic carcinoma); assay: Retention of CLR1501 in pre-incubated Panc-1 cells inoculated into athymic nude mouse; assay type: in vivo; conditions: Panc-1 cells incubated 4 hours, then inoculated
Method: FIG. 10 depicts tumor co-localization of CLR1501 in athymic nude mouse. […] The mouse was inoculated with 1×10^6 Panc-1 cells (human pancreatic carcinoma) which were incubated with CLR1501 or Kodak X-Sight 761 or both CLR1501 and Kodak X-Sight 761 for 4 hours. The cells were harvested and inoculated in different spots. The signals from each dye were obtained using Kodak in vivo imaging system (Carestream Health, Woodbridge, Conn.). CLR1501 was excited at 480 and emitted at 520 nm while the Kodak X-Sight was excited at 750 and emitted at 830 nm.

[13] = test system: skin melanoma (A375) cells; assay: Distribution of CLR1501 in cancer skin cells; assay type: cell-based
Method: To study the distribution of CLR1501 in cancer skin cells versus normal skin cells, CLR1501 was introduced into skin melanoma (A375) and normal skin (704sk) cells, purchased from ATCC. Both cells were maintained at 37° C. in DMEM media supplemented with 10% FBS and 5% CO2. Before imaging, the cells were removed from flasks with 0.25% trypsin and were allowed to grow overnight on the slides (Ibidi, microslides VI flat, Catalog No: 80626). […] CRL1501 was formulated with 0.4% of Polysorbate 20, 2% of ethanol and saline. After washing thoroughly with PBS, the cells were imaged using Bio-Rad Radiance 2100 MP Rainbow with 1 second exposure time.

[14] = test system: normal skin (704sk) cells; assay: Distribution of CLR1501 in normal skin cells; assay type: cell-based; conditions: 7.5 μM, 24 hours
Method: To study the distribution of CLR1501 in cancer skin cells versus normal skin cells, CLR1501 was introduced into skin melanoma (A375) and normal skin (704sk) cells, purchased from ATCC. Both cells were maintained at 37° C. in DMEM media supplemented with 10% FBS and 5% CO2. Before imaging, the cells were removed from flasks with 0.25% trypsin and were allowed to grow overnight on the slides (Ibidi, microslides VI flat, Catalog No: 80626). The next day, the media was gently replaced with Phosphate Buffered Saline (PBS) and the cells were incubated with 7.5 μM of CLR1501 on DMEM media for 24 hours. CRL1501 was formulated with 0.4% of Polysorbate 20, 2% of ethanol and saline. After washing thoroughly with PBS, the cells were imaged using Bio-Rad Radiance 2100 MP Rainbow with 1 second exposure time.

[15] = injected 96 hours prior to imaging

Structure (SMILES): C[N+](C)(C)CCOP(=O)([O-])OCCCCCCCCCCCCCCCCCCc1ccc(I)cc1 [NM404, 18-p-(iodophenyl)-octadecyl phosphocholine]
Duration of selective retention in tumors ([1]; mouse models): > 80 days
Tumor models showing selective retention ([1]; xenograft and spontaneous primary and metastatic tumor models): 37 out of 37

Distribution of fluorescence signal in vivo ([8]; injected 150 μL of 6 mg/mL, 24 and 96 hours prior to imaging): found mostly in the tumors
Accumulation in the tumor [8, 15]: more pronounced
Retention of the dye in other tissues [8, 15]: tremendously reduced
Structure (SMILES): C[N+](C)(C)CCOP(=O)([O-])OCCCCCCCCCCCCCCCCCCc1ccc(C2=C3C=CC=[N+]3[B-](F)(F)n3cccc32)cc1 [CLR1501, 18-[p-(4,4-difluoro-4-bora-3a,4a-diaza-s-indacene-8-yl)-phenyl]-octadecyl phosphocholine]
Co-localization with nucleus (NFA cells [2]; NFA (normal)): not co-localized with nucleus
Co-localization with lysosome (NFA cells [2]; NFA): minimally with NFA
Co-localization with nucleus (Caki-2 cells; Caki-2 (tumor)): not co-localized with nucleus
Co-localization with lysosome (Caki-2 cells; Caki-2): co-localized with lysosome
Relative intensity to normal cells [3]: 6.2
Average grey intensity ([3]; 37° C.): 92.86
Relative intensity to normal cells [4]: 10.11
Average grey intensity ([4]; 37° C.): 151.56
Relative intensity to normal cells [5]: 12.01
Average grey intensity ([5]; 37° C.): 180.04
Relative intensity to normal cells [6]: 1
Average grey intensity ([6]; 37° C.): 14.99
Relative intensity to normal cells [7]: 9.58
Average grey intensity ([7]; 37° C.): 143.65
Tumor co-localization over time ([8]; 1 mg in 0.15 mL, monitored at 24 and 96 hours, de-skinned): accumulated in tumor site, while it cleared out from the rest of normal organs
Site of accumulation in cells [9]: mostly accumulated in cytoplasm of the cells
Co-localization with organelles ([9]; Mitotracker, Blue-White DPX): co-localized with mitochondria and ER
Co-localization with nucleus (PC3 cells; PC3 (tumor)): not co-localized with nucleus
Co-localization with mitochondria (PC3 cells; PC3): co-localized with mitochondria
Co-localization with nucleus (NFA cells [10]): not co-localized with nucleus
Uptake in cancerous cell lines ([11]; FIGS. 2c-2i and 2k-2l, 5 μM, 24 hours): significant uptake
Penetration into the nucleus ([11]; the in vitro experiments overall): does not penetrate inside of the nucleus
Uptake by tumor cells relative to normal fibroblast cells ([11]; tumor cells of Table 1 vs NFA): 6-12 times
Retention in cancer cells after inoculation [12]: continues to be retained in these cells after in vivo subcutaneous injection
Cellular distribution ([13]; 7.5 μM, 24 hours): internalization of CLR1501 into numerous fluorescent vesicles that are scattered throughout the cytoplasm
Early time uptake profile ([13]; half an hour after incubation): signals are thin and limited at the plasma membrane
Early time uptake profile ([13]; one hour after incubation): signals are not concentrated solely in the plasma membrane: intracellular structures are also observed
Cellular distribution [14]: transported to the lysosomes where it was degraded
